In article PMC12367838, “Relevance of kinetic interactions and co-formulants for plant protection product liver toxicity in vitro” (Archives of Toxicology, 2025):
Values after ≈ are worked out from the molar mass of the structure shown.

Legend:
[1] = system: CYP2C9; experiment: CYP450 reaction phenotyping, CYP2C9-Silensomes; type: in vitro ADME; details: human, pH 7.4
From the text: (§1) Silensomes™ CYP phenotyping kits (Lonza; Basel, Switzerland) contain human pooled liver microsomes (HLM) that are chemically and irreversibly inactivated by mechanism-based inhibitor for each specific CYP450 isoenzyme. Each CYP-Silensomes™ has a corresponding control that is produced the same way without inactivation. […] However, CYP2C19-Silensomes™ were not available for purchasing. The assay was essentially performed according to the instructions of the supplier. […] At 0, 10, 20, 30, and 45 min, 50 µL of the reaction volume was removed and put in a tube containing 50 µL of methanol to stop the CYP reactions. The tubes were allowed to stand at 4 °C for 1 h to allow protein precipitation to occur. Afterwards, the tubes were centrifuged at 3500 × g for 15 min at 4 °C before the supernatant was removed and analyzed using LC–MS/MS. The control experiments with the control HLM were performed at the same time as the Silensomes™. The in vitro intrinsic clearance (Clint) for each enzyme was calculated as follows: Clint (µL/min/mg) = (slope × V)/P, where the slope is the elimination rate constant (min^−1) for exponential substrate loss, V is the incubation volume (µL), and P is the microsomal protein (mg). The fraction metabolized by each CYP enzymes was determined as follows: fm = (1 – (Clint CYP-Silensomes™/Clint Control-Silensomes™)) × 100. […]

[2] = Neutral red uptake (NRU) cytotoxicity assay; type: cell-based, human; details: human, differentiated HepaRG cells, NRU assay, 72-h incubation
Method: (§2) Wild-type human hepatoma HepaRG cells obtained from Biopredic International (Saint Grégoire, France) were cultivated for 4 weeks in a Binder cell culture incubator maintained at 37 °C in a 5% humidified atmosphere with 5% CO2 before they were employed in this study. The 4 weeks consisted of 2 weeks of proliferation and 2 weeks of differentiation. […]
(§3) Cytotoxicity assays were performed in 96-well plates at a density of 9000 cells per well, and test compounds were incubated for 72 h. […] After the 30-min incubation with WST-1, absorbance was measured at 450 nm corrected by a reference at 620 nm (λexc = 450 nm/λemi = 620 nm) using an Infinite M200 PRO plate reader (Tecan; Männedorf, Switzerland). […] The absorbed dye was quantified by fluorescence measurement (λexc = 530 nm/λemi = 645 nm) on an Infinite M200 PRO plate reader (Tecan; Männedorf, Switzerland). Background corrected viability values of both assays were expressed as a percentage of untreated cells. […] Means and standard deviations for each treatment were calculated. […]

[3] = system: CYP2C9; details: clearance of DIF in healthy human adults; ref Wetmore et al. (2014); cited from earlier work
[4] = system: HepaRG cells; experiment: Quantification of DIF in cell culture supernatant (LC-MS/MS); details: 24-h treatment of HepaRG cells; µg DIF in medium/µg start concentration × 100%
Method: HepaRG cells were incubated for 24 h at 37 °C and 5% CO2 in a humidified atmosphere with each test compound in treatment medium of 0.5% final DMSO concentration. After incubation, medium was harvested and cells were washed twice with 0.5 mL PBS, which was added to the harvested medium. Cell lysis was performed on ice by adding 0.55 mL of RIPA Lysis and Extraction Buffer (Thermo Fisher Scientific, Waltham, Massachusetts, USA) in each well. The experiment was conducted in duplicates, which were pooled to make a final volume of 3 mL for medium samples and 1.1 ml of the cell samples for each test compound. The Pierce™ BCA Protein Assay Kit (Thermo Fisher Scientific, Waltham, Massachusetts, USA) was utilized to quantify protein in 50 µL of the cell lysates in order to normalize the measured pesticide concentrations in cells to absolute protein quantities.
Briefly, each of the 1.5 mL of medium samples and 500 µL cell samples was added to 50 mL centrifuge tubes. Up to 5 mL Milli-Q water was added followed by 10 mL acetonitrile. The mixture was shaken vigorously by a vortex mixer for 10 min. […]
Samples from the CYP450 reaction phenotyping and pesticide quantification were analyzed with an Agilent 1290 Infinity II LC system coupled to Agilent 6475 triple quadrupole LC/MS systems (Agilent Technologies; Heilbronn, Germany). […]

[5] = system: CYP3A4; experiment: CYP450 reaction phenotyping, CYP3A4-Silensomes; type: in vitro ADME, human
From the text: as §1

[6] = WST-1 cytotoxicity assay; type: cell-based, human; details: human, differentiated HepaRG cells, WST-1 assay, 72 h incubation
Method: as §2, §3

[7] = system: UGT1A4; details: clearance of DIF in healthy human adults; ref Wetmore et al. (2014); cited from earlier work
[8] = system: CYP1A2; experiment: CYP450 reaction phenotyping, CYP1A2-Silensomes; type: in vitro ADME, human
From the text: Silensomes™ CYP phenotyping kits (Lonza; Basel, Switzerland) contain human pooled liver microsomes (HLM) that are chemically and irreversibly inactivated by mechanism-based inhibitor for each specific CYP450 isoenzyme. Each CYP-Silensomes™ has a corresponding control that is produced the same way without inactivation. […] However, CYP2C19-Silensomes™ were not available for purchasing. The assay was essentially performed according to the instructions of the supplier. […] At 0, 10, 20, 30, and 45 min, 50 µL of the reaction volume was removed and put in a tube containing 50 µL of methanol to stop the CYP reactions. The tubes were allowed to stand at 4 °C for 1 h to allow protein precipitation to occur. Afterwards, the tubes were centrifuged at 3500 × g for 15 min at 4 °C before the supernatant was removed and analyzed using LC–MS/MS. The control experiments with the control HLM were performed at the same time as the Silensomes™. The in vitro intrinsic clearance (Clint) for each enzyme was calculated as follows: Clint (µL/min/mg) = (slope × V)/P, where the slope is the elimination rate constant (min^−1) for exponential substrate loss, V is the incubation volume (µL), and P is the microsomal protein (mg). The fraction metabolized by each CYP enzymes was determined as follows: fm = (1 – (Clint CYP-Silensomes™/Clint Control-Silensomes™)) × 100. Three independent experiments were conducted with the same batch of Silensomes™.

[9] = CYP450 reaction phenotyping, control-Silensomes; type: in vitro ADME, human
From the text: as §1

[10] = system: CYP3A4; details: clearance of DIF in healthy human adults; ref Wetmore et al. (2014); cited from earlier work
[11] = system: HepaRG cells; experiment: Total RNA sequencing, differential gene expression; details: 24 h, vs solvent control
[12] = high sub-cytotoxic concentration
[13] = low sub-cytotoxic concentration

CC1COC(Cn2cncn2)(c2ccc(Oc3ccc(Cl)cc3)cc2Cl)O1 (centres unmarked) [DIF, difenoconazole]
microsomal CLint at 1 µM [1]: 12.5 µL/min/mg
EC50 at 72 h [2]: 15.9 µg/mL (≈ 39.1 µM)
CYP2C9 fm [3]: 5.41%
DIF remaining in the cell culture medium [4]: ~4%
CLint, CYP3A4-Silensomes ([5]; 1 µM DIF, 1 mg/mL, 37 °C): 9.27 µL x min^−1 × mg^−1
DIF remaining, CYP3A4-Silensomes ([5]; after 45 min): ~40%
EC50 at 72 h [6]: 11.8 µg/mL (≈ 29 µM)
UGT1A4 fm [7]: 4.55%
CYP1A2 fm (fraction metabolized) ([8]; Silensomes vs control-Silensomes): ≈ 0%
DIF remaining, CYP1A2-Silensomes ([8]; after a 45-min incubation): about 20%
microsomal CLint at 1 µM ([8]; human, pH 7.4): 15.8 µL/min/mg
DIF remaining, control-Silensomes ([9]; after a 45-min incubation): about 20%
microsomal CLint at 1 µM ([9]; human, pH 7.4): 15.7 µL/min/mg
CYP3A4 fm [10]: 43.3%
ACOX1 log2FoldChange [11, 12]: -0.02489
AHR log2FoldChange [11, 12]: 0.5444
CD36 log2FoldChange [11, 12]: -0.5278
FASN log2FoldChange [11, 12]: -0.3325
INSIG1 log2FoldChange [11, 12]: -1.049
MLXIPL log2FoldChange [11, 12]: 0.2472
NR1H2 log2FoldChange [11, 12]: 0.8621
NR1H4 log2FoldChange [11, 12]: -0.4056
NR1I2 log2FoldChange [11, 12]: 0.3067
NR1I3 log2FoldChange [11, 12]: -1.429
NR3C1 log2FoldChange [11, 12]: 0.4134
PPARA log2FoldChange [11, 12]: -0.3067
PPARG log2FoldChange [11, 12]: 2.421
RARA log2FoldChange [11, 12]: 0.4466
RARB log2FoldChange [11, 12]: 1.042
RARG log2FoldChange [11, 12]: 0.1102
SCD log2FoldChange [11, 12]: -0.7403
SREBF1 log2FoldChange [11, 12]: -1.013
ACOX1 log2FoldChange [11, 13]: 0.1757
AHR log2FoldChange [11, 13]: -0.129
CD36 log2FoldChange [11, 13]: 0.878
FASN log2FoldChange [11, 13]: 0.4404
INSIG1 log2FoldChange [11, 13]: 1.024
MLXIPL log2FoldChange [11, 13]: 0.1497
NR1H2 log2FoldChange [11, 13]: 0.1806
NR1H4 log2FoldChange [11, 13]: 0.1474
NR1I2 log2FoldChange [11, 13]: 0.3965
NR1I3 log2FoldChange [11, 13]: -0.3855
NR3C1 log2FoldChange [11, 13]: -0.2111
PPARA log2FoldChange [11, 13]: 0.07836
PPARG log2FoldChange [11, 13]: 0.2447
RARA log2FoldChange [11, 13]: 0.1188
RARB log2FoldChange [11, 13]: 0.3597
RARG log2FoldChange [11, 13]: 0.07285
SCD log2FoldChange [11, 13]: 0.5665
SREBF1 log2FoldChange [11, 13]: -0.5234
